The source of these data is ChEMBL document CHEMBL1129479, “Structure-activity relationships of a new family of steroidal aromatase inhibitors. 1. Synthesis and evaluation of a series of analogs related to 19-[(methylthio)methyl]androstenedione (RU54115)” (J Med Chem, 1996).

In series [1] the target is Aromatase (Homo sapiens, UniProt P11511). Nature of the series: In vitro inhibition to cytochrome P450 19A1 assayed using human placental microsomes. Also noted: species or system Placenta.
For series [2], the target named is T1, Aromatase (Rattus norvegicus, UniProt P22443).
T1 sequence (P22443 whole entry): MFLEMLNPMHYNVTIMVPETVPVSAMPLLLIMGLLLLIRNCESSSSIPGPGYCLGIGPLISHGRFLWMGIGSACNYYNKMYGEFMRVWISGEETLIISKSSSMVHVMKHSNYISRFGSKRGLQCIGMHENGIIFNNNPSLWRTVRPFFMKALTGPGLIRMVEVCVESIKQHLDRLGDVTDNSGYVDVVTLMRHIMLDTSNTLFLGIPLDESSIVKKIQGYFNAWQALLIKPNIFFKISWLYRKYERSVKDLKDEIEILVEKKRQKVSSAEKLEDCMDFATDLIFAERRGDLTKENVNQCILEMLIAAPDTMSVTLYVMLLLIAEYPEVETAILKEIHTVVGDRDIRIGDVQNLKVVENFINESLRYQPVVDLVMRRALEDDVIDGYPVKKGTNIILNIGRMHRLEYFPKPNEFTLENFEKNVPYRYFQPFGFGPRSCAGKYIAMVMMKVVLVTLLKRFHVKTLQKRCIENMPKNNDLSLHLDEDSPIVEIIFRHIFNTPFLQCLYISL
Put plainly: In vivo reduction in serum estradiol in PMSG-primed rats after 2 hr at 5 mg/kg oral dose. It is filed as functional, organism-based. Also noted: dose 5 mg/kg, route oral; scale not given: the % may be the effect or the level left.

The target of series [3] is T1, Aromatase. Nature of the series: In vivo reduction in serum estradiol in PMSG-primed rats after 6 hr at 5 mg/kg oral dose. It is filed as functional, organism-based. Also noted: dose 5 mg/kg, route oral; scale not given: the % may be the effect or the level left.

Broadly, the IC50 is the concentration at which inhibition is half-maximal. As for `CSSCC[C@]12CCC(=O)C=C1CCC1C2=CC[C@]2(C)C(=O)CCC12` (stereo partly drawn), on Aromatase [1], the IC50 is > 1000 nM. For the same compound, the values for the Control on Aromatase [2] and at Aromatase [3] were 7% and 23%, respectively.

For `C[C@]12CC=C3C(CCC4=CC(=O)CC[C@@]43CCSC(F)F)C1CCC2=O` (stereo partly drawn), the IC50 on Aromatase [1] is > 1000 nM.

On Aromatase [1], `C[C@]12CC=C3C(CCC4=CC(=O)CC[C@@]43CCSCF)C1CCC2=O` (stereo partly drawn) returned an IC50 of 50 nM. The Control is on record as 31% at Aromatase [2] and 41% at Aromatase [3].

On to `CSCCCC12CCC(=O)C=C1CCC1C2=CC[C@]2(C)C(=O)CCC12` (single isomer, unassigned), for which the IC50 against Aromatase [1] is > 10000 nM.

Consider `C[C@]12CC=C3C(CCC4=CC(=O)CC[C@@]43CCI)C1CCC2=O` (stereo partly drawn), for which, on Aromatase [1], the IC50 was > 10000 nM.

`C=CCSCC[C@]12CCC(=O)C=C1CCC1C2=CC[C@]2(C)C(=O)CCC12` (stereo partly drawn) had a 50% inhibitory concentration (IC50) on Aromatase [1] of 270 nM.

As to `CSCC[C@]12CCC(=O)C=C1CCC1C2=CC[C@]2(C)C(=O)CCC12` (stereo partly drawn), on Aromatase [1], half-maximal inhibition (IC50) required 12 nM. Further, the Control at Aromatase [2] is on record as 51%; at Aromatase [3], 50%.

With `CSC(C[C@]12CCC(=O)C=C1CCC1C2=CC[C@]2(C)C(=O)CCC12)SC` (stereo partly drawn), at Aromatase [1], the IC50 was > 1000 nM. For the same compound, the Control came to 18% on Aromatase [2] and 13% at Aromatase [3].

On Aromatase [1], `C[C@]12CC=C3C(CCC4=CC(=O)CC[C@@]43CCSc3ccccc3)C1CCC2=O` (stereo partly drawn) registered an IC50 of 400 nM.

Regarding `CC(=O)SCC[C@]12CCC(=O)C=C1CCC1C2=CC[C@]2(C)C(=O)CCC12` (stereo partly drawn), the IC50 against Aromatase [1] is > 10000 nM. Also, the figures for the Control on Aromatase [2] and on Aromatase [3] were 21% and 10%, respectively.

`CSC(=O)C[C@]12CCC(=O)C=C1CCC1C2CC[C@]2(C)C(=O)CCC12` (stereo partly drawn): the IC50 at Aromatase [1] was determined as 42 nM. Also, the Control on Aromatase [2] worked out at 37%; on Aromatase [3] it was 49%.

As to `C[C@]12CC=C3C(CCC4=CC(=O)CC[C@@]43CCSSc3ccc([N+](=O)[O-])cc3[N+](=O)[O-])C1CCC2=O` (stereo partly drawn), the IC50 against Aromatase [1] is > 1000 nM. The Control was determined as 27% on Aromatase [2] and 32% at Aromatase [3].

In the case of `C[C@]12CC=C3C(CCC4=CC(=O)CC[C@@]43CCSCCS)C1CCC2=O` (stereo partly drawn), the half-inhibitory concentration (IC50) on Aromatase [1] was > 1000 nM.

Compound `CS[C@]12CCC(=O)C=C1CCC1C2=CC[C@]2(C)C(=O)CCC12` (stereo partly drawn) yielded an IC50 at Aromatase [1] of 7400 nM.

As for `C[C@]12CC=C3C(CCC4=CC(=O)CC[C@@]43CCSSc3ccccc3)C1CCC2=O` (stereo partly drawn), the IC50 on Aromatase [1] was > 1000 nM. The Control was 43% at Aromatase [2] and 62% at Aromatase [3].

`C=CSCC[C@]12CCC(=O)C=C1CCC1C2=CC[C@]2(C)C(=O)CCC12` (stereo partly drawn) showed an IC50 against Aromatase [1] of 50 nM. Further, the Control is 25% on Aromatase [2] and 24% on Aromatase [3].

Take `C#CCSCC[C@]12CCC(=O)C=C1CCC1C2=CC[C@]2(C)C(=O)CCC12` (stereo partly drawn): on Aromatase [1], the midpoint of inhibition, the IC50, lay at 1000 nM. Also, the figures for the Control on Aromatase [2] and at Aromatase [3] were 5% and 25%, respectively.

The compound `CSCSCC[C@]12CCC(=O)C=C1CCC1C2=CC[C@]2(C)C(=O)CCC12` (stereo partly drawn) had an IC50 against Aromatase [1] of 570 nM.

Turning to `CN(C)CC[C@]12CCC(=O)C=C1CCC1C2=CC[C@]2(C)C(=O)CCC12` (stereo partly drawn), the IC50 against Aromatase [1] is > 10000 nM.

`C#CSCC[C@]12CCC(=O)C=C1CCC1C2=CC[C@]2(C)C(=O)CCC12` (stereo partly drawn): on Aromatase [1], the half-maximal inhibitory concentration (IC50) worked out at 330 nM.

`CCSCC[C@]12CCC(=O)C=C1CCC1C2=CC[C@]2(C)C(=O)CCC12` (stereo partly drawn) registered an IC50 on Aromatase [1] of 870 nM.

Turning to `C[C@]12CC=C3C(CCC4=CC(=O)CC[C@@]43CCSC3CC3)C1CCC2=O` (stereo partly drawn), on Aromatase [1], the IC50 was > 1000 nM.

For the compound `CCSC(C[C@]12CCC(=O)C=C1CCC1C2=CC[C@]2(C)C(=O)CCC12)SCC` (stereo partly drawn), the IC50 at Aromatase [1] was > 1000 nM.

As for `C[C@]12CC=C3C(CCC4=CC(=O)CC[C@@]43CC[Se]c3ccccc3)C1CCC2=O` (stereo partly drawn), the IC50 against Aromatase [1] is > 1000 nM.

For the compound `C[C@]12CC=C3C(CCC4=CC(=O)CC[C@@]43CCOS(C)(=O)=O)C1CCC2=O` (stereo partly drawn), the IC50 on Aromatase [1] was > 10000 nM.

On to `C[C@]12CC=C3C(CCC4=CC(=O)CC[C@@]43CCSCCO)C1CCC2=O` (stereo partly drawn), for which the IC50 against Aromatase [1] was > 1000 nM.

In turn, `COCC[C@]12CCC(=O)C=C1CCC1C2=CC[C@]2(C)C(=O)CCC12` (stereo partly drawn) had an IC50 against Aromatase [1] of 10000 nM.

`CSCC[C@]12CCC(=O)C=C1CCC1C2CC[C@]2(C)C(=O)CCC12` (stereo partly drawn) registered an IC50 on Aromatase [1] of 22 nM. In addition, the results for the Control at Aromatase [2] and at Aromatase [3] were 11% and 16%, respectively.

Take `C[C@]12CC=C3C(CCC4=CC(=O)CC[C@@]43CCSC#N)C1CCC2=O` (stereo partly drawn): the IC50 on Aromatase [1] was > 1000 nM. In addition, the Control on Aromatase [2] was 44%; on Aromatase [3], 38%.
